# Assay results: patent US20060115804A1, “Method of studying living cells” (priority 2002, published 2006)
# Test system: Primary human osteoblasts
# Assay: Formation and mineralisation of bone nodules (962 cm^-1 hydroxyapatite Raman peak) by osteoblasts cultured on 45S5 Bioglass
# Type: cell-based
# Settings: culture medium supplemented with BGP; cells on 45S5 Bioglass substrates
# Procedure: Primary human osteoblasts were cultured on 45S5 Bioglass® substrates in order to induce formation of new bone. The formation of new bone can be detected with high sensitivity using Raman spectroscopy with 785 nm lasers by detecting the 962 cm^−1 Raman peak of hydroxyapatite (the mineral phase of bone). […] Only peaks corresponding to intrinsic cellular components were measured.
structure (smiles),measurement,value
"O=P(O)(O)OC(CO)CO [beta-glycerophosphate (BGP), beta-glycerophosphate]",Hydroxyapatite Raman peak (formation of bone nodules),a strong peak corresponding to hydroxyapatite was detected
